# “Also recorded” adds a separate entry of the source.
# Columns and labels:
# [1] = tested on: Pseudomonas syringae pv. tomato DC3000 (Pst); assay: Resistance of Arabidopsis to Pseudomonas syringae pv. tomato DC3000 (bacterial growth); type: in vivo; details: for resistance to virulent Pst DC3000 (bacterial growth): leaf syringe infiltration 0.3 μM 24 hours prior to inoculation, 3 dpi; for resistance to virulent Pst DC3000: leaf treatment at the concentration tested
# [2] = tested on: Pseudomonas syringae pv. tabaci; assay: Resistance of tobacco to Pseudomonas syringae pv. tabaci (bacterial growth); details: leaves treated with 250 μM SA alone
# [3] = tested on: asthma in a mouse model system; details: cited from earlier work
# [4] = tested on: C. elegans; details: cited from earlier work; for sex pheromone activity: mixture of three ascarosides
# [5] = tested on: ovalbumin-specific T-helper cell responses; details: mice; cited from earlier work
# [6] = tested on: PR-1; assay: PR-1 expression in Arabidopsis leaves (semi-quantitative PCR / qRT-PCR); details: for PR-1 expression in Arabidopsis: leaf pretreatment by syringe infiltration, 0.01, 0.3, and 10 μM; for PR-1 expression, ascaroside alone: leaf syringe infiltration (0.01 or 0.3 μM), semi-quantitative PCR
# [7] = tested on: PR-1; assay: PR-1 protein/transcript induction in tobacco leaves (immunoblot, RT-PCR); details: low concentrations of ascaroside
# Procedure: Four-weeks old tobacco plants were syringe-infiltrated with buffer, SA, or a mixture of SA (50 μM or 500 μM) and decreasing concentration of ascr #18 (10, 0.3, and 0.01 μM). PR-1 was assayed 48 hours after treatment by immunoblot using anti-PR-1 antibody.
# PR-1 expression was analyzed 48 hp SA treatment.
# To determine whether ascr #18 affects levels of the prototypic SA-responsive PR-1 gene/protein, tobacco plants were treated with varying concentrations of ascr #18 in the presence or absence of SA (FIG. 2).
# [8] = tested on: PDF1.2; assay: PDF1.2 expression in Arabidopsis leaves (semi-quantitative PCR / qRT-PCR); details: for PDF1.2 expression in Arabidopsis: leaf pretreatment by syringe infiltration, 0.01, 0.3, and 10 μM; for PDF1.2 expression, ascaroside alone: leaf syringe infiltration (0.01 or 0.3 μM), semi-quantitative PCR
# [9] = tested on: Botrytis cinerea; assay: Resistance of tomato to Botrytis cinerea B05.01 (detached leaflet assay); type: in vivo; details: tomato cv. M82; root immersion 0.01 μM 48 hours before
# [10] = tested on: Heterodera schachtii; assay: Arabidopsis cyst nematode infection assay; type: in vivo; details: higher concentrations than 10 nM
# [11] = tested on: M. incognita; assay: Arabidopsis root knot nematode infection assay; type: in vivo, Meloidogyne incognita; details: higher concentrations than 10 nM
# [12] = ascaroside at low concentrations in combination with SA (50 μM)
# [13] = higher concentration of ascaroside with SA (50 μM)
compound,measurement,setting,value
"O=C(O)c1ccccc1O [SA, salicylic acid, reference compound]",protection against Pst,"[1]; 50 μM SA alone, leaf infiltration",low level of protection
same,virulent P.t. growth,[2],reduced levels of virulent P.t. growth
CC1O[C@@H](O[C@H](C)CCCCC(=O)O)C(O)C[C@H]1O (stereo partly shown) [ascr #1],development of asthma,[3],strongly suppressed the development of asthma
"CC(=O)CC[C@@H](C)O[C@@H]1OC(C)[C@H](O)CC1O (stereo partly shown) [ascr #2, reference compound]",sex pheromone activity,[4],active at low nanomolar concentrations
CC1O[C@@H](O[C@H](C)CCCC/C=C/C(=O)O)C(O)C[C@H]1O (stereo partly shown) [ascr #3],resistance to virulent Pst DC3000 (bacterial growth),[1],enhanced resistance
same,ovalbumin-specific T-helper cell responses,[5],no significant effect
same,response of hermaphrodites,[4],repels hermaphrodites
same,sex pheromone activity,[4],active at low nanomolar concentrations
same,SA-induced PR-1 expression,[6]; [12],enhances PR-1 expression induced by SA
same,SA-induced PR-1 expression,[6]; [13],reduces the SA-induced PR-1 expression
same,PR-1 expression in Arabidopsis,[6],+
same,"PR-1 expression, ascaroside alone",[6],induces PR-1 expression; also recorded: induced expression; also recorded: altered
same,PR-1 expression in tobacco cv. W38,[7],did not significantly increase PR-1 expression
same,PDF1.2 expression in Arabidopsis,[8],+
same,"PDF1.2 expression, ascaroside alone",[8],induces PDF1.2 expression; also recorded: induced expression; also recorded: altered
CC1O[C@@H](O[C@H](C)CC/C=C/C(=O)O)C(O)C[C@H]1O (stereo partly shown) [ascr #7],development of asthma,[3],strongly suppressed the development of asthma
same,ovalbumin-specific T-helper cell responses,[5],strongly suppresses
CC1O[C@@H](O[C@H](C)CC/C=C/C(=O)Nc2ccc(C(=O)O)cc2)C(O)C[C@H]1O (stereo partly shown) [ascr #8],sex pheromone activity,[4],active at low nanomolar concentrations
C[C@H](CCC(=O)O)O[C@@H]1O[C@@H](C)[C@H](O)C[C@H]1O [ascr #9],resistance to virulent Pst DC3000,[1],did not significantly enhance resistance
same,SA-induced PR-1 expression,[6]; [12],enhances PR-1 expression induced by SA
same,SA-induced PR-1 expression,[6]; [13],reduces the SA-induced PR-1 expression
same,PR-1 expression in Arabidopsis,[6],+
same,"PR-1 expression, ascaroside alone",[6],induces PR-1 expression; also recorded: induced expression; also recorded: altered
same,PR-1 expression in tobacco cv. W38,[7],did not significantly increase PR-1 expression
same,PDF1.2 expression in Arabidopsis,[8],+
same,"PDF1.2 expression, ascaroside alone",[8],induces PDF1.2 expression; also recorded: induced expression; also recorded: altered
CC1O[C@@H](O[C@H](C)CCCCCCC(=O)O)C(O)C[C@H]1O (stereo partly shown) [ascr #10],resistance to virulent Pst DC3000,[1],did not significantly enhance resistance
same,response of hermaphrodites,[4],strongly attracts hermaphrodites
same,SA-induced PR-1 expression,[6]; [12],enhances PR-1 expression induced by SA
same,"PR-1 expression, ascaroside alone",[6],induces PR-1 expression; also recorded: altered
same,PR-1 expression in tobacco cv. W38,[7],did not significantly increase PR-1 expression
same,"PDF1.2 expression, ascaroside alone",[8],induces PDF1.2 expression; also recorded: altered
CC1O[C@@H](O[C@H](C)CCCCCCCCC(=O)NCCO)C(O)C[C@H]1O (stereo partly shown) [easc #18],resistance to virulent Pst DC3000 (bacterial growth),[1],enhances resistance
same,resistance to B. cinerea (lesion size 3 dpi),[9],enhanced resistance
"CC1O[C@@H](O[C@H](C)CCCC/C=C/C(=O)O)C(O)C[C@H]1OC(=O)c1ccc(O)cc1 (stereo partly shown) [hbas #3, reference compound]",promotion of aggregation behaviors,[4],active at femtomolar concentrations
CC1O[C@@H](OCCCCC(=O)O)C(O)C[C@H]1O (stereo partly shown) [oscr #9],resistance to virulent Pst DC3000,[1],did not significantly enhance resistance
same,SA-induced PR-1 expression,[6]; [12],enhances PR-1 expression induced by SA
same,PDF1.2 expression in Arabidopsis,[8],−
"(10R)-(3′R,5′R-dihydroxy-6′S-methyl-(2H)-tetrahydropyran-2-yloxy)-undecanoic Acid [ascr #18]",infection with H. schachtii,[10],less effective
same,infection with M. incognita,[11],less effective

# From patent US12382888B2, “Compositions and methods for modulating immunity in plants” (Boyce Thompson Institute for Plant Research, Inc., priority 2013, dated 2025)
